# Test: Effect of gamma irradiation on paclitaxel stability in various compositions (paclitaxel assay before and after irradiation)
# Type: physicochemical
# Text: Paclitaxel either as a powder or in solution in different solvents such as DMA, PEG 400, DMA:PEG 400 (25:75% w/w) and in a polymer solution in DMA:PEG 400 (25:75% w/w) was subjected to gamma irradiation sterilization at a dose of 25 KGy and analyzed for paclitaxel content before and after irradiation.
smiles,measurement,setting,value
CC(=O)O[C@H]1C(=O)[C@@]2(C)[C@H]([C@H](OC(=O)c3ccccc3)[C@]3(O)C[C@H](OC(=O)[C@H](O)[C@@H](NC(=O)c4ccccc4)c4ccccc4)C(C)=C1C3(C)C)[C@]1(OC(C)=O)CO[C@@H]1C[C@@H]2O [Paclitaxel],"Assay WRT initial, % (percentage remaining after treatment)",after gamma irradiation at 25 KGy,94.74%
same,"Assay, % Post-irradiation",paclitaxel content after gamma irradiation at 25 KGy,94.74 ± 2.36%
same,"Assay, % Initial",paclitaxel content before gamma irradiation,100%
